Assay [1] deals with A549 (human lung adenocarcinoma cells). Nature of the assay: Cell viability assay (resazurin), cytotoxic activity against solid tumours. The following applies: for IC50: Homo sapiens, read-out: IC50 A549 (Lung adenocarcino ma); for S.I. A549 (Selectivity Index): IC50 HaCaT divided by IC50 A549, mean of independent experiments. In kind it is cell-based. The protocol: (§1) Cells were grown in Dulbecco's Modified Eagle's Medium (DMEM) supplemented with 100 U/mL penicillin, 100 µg/mL streptomycin and 10% fetal bovine serum. HL60 cell line (acute myeloid leukaemia, AML) was obtained from ATCC. It was cultured in IMDM medium supplemented with 100 U/mL penicillin, 100 µg/mL streptomycin and 10% fetal bovine serum. U937 (AML) and Jurkat cells (ALL) were obtained from DMSZ, Braunschweig, Germany, and ATCC, respectively. They were cultivated in RPMI medium, supplemented with 100 U/mL penicillin, 100 µg/mL streptomycin and 10% fetal bovine serum. […] All cell lines were cultured at 37 ° C with 5% CO2 in a humidified incubator. Cell culture reagents were purchased from Biowest. Exponentially growing cells (3000-6000 cells per well) were seeded in 96-well plates. After 24 hours, cells were treated with the drugs for 72 hours. The cell viability was then estimated with the resazurin assay, a colorimetric technique based on the capability of viable cells to reduce the blue reagent resazurin to the pink-soluble product resorufin. The amount of resorufin produced is proportional to the number of viable cells. Briefly, cells were washed once with phosphate buffered saline (PBS) and 150 µL resazurin (20 µg/mL in medium) was added to each well. […] Cell viability was calculated as a percentage compared to non-treated cells. The results were expressed as the means ± standard error of the mean (SEM). All data are from at least three independent experiments. The selectivity index (S.I.) values were calculated over each cancer cell line as the mean of the IC50 value in the non-malignant cell line (HaCaT) by the IC50 in the respective cancer cell line obtained in each independent experiment.
A general note: Resazurin is reduced to fluorescent resorufin, in cell work by metabolically active cells.

Assay [2] concerns T24 (human bladder cancer cells). Described as above. In kind it is cell-based. The following applies: for IC50: Homo sapiens, read-out: IC50 T24 (Bladder cancer); for S.I. T24 (Selectivity Index): IC50 HaCaT divided by IC50 T24, mean of independent experiments. The procedure:
as §1

Assay [3] has as its system MeWo (human melanoma cells). The description is as above. It counts as cell-based. The following applies: for IC50: Homo sapiens, MeWo, read-out: IC50 MeWo (Melanoma; BRAF WT); for S.I. MeWo (Selectivity Index): IC50 HaCaT divided by IC50 MeWo, mean of independent experiments. The procedure: as §1
The subject of assay [4] is HL60 (Acute myeloid leukaemia). The assay is described as follows: Antileukemic activity, cell viability (CCK-8 Cell Counting Kit). It counts as cell-based. The following applies: Homo sapiens, HL-60; 18 h incubation, compounds 0 - 100 µM; read-out: IC50 Cancer cells HL60 (Acute myeloid leukaemia). The procedure: (§2) HaCaT cells (human keratinocytes, reference control), A549 (human lung adenocarcinoma cells), MeWo (human melanoma cells) and T24 (human bladder cancer cells) were purchased from Cell Lines Service (CLS). Cells were grown in Dulbecco's Modified Eagle's Medium (DMEM) supplemented with 100 U/mL penicillin, 100 µg/mL streptomycin and 10% fetal bovine serum. HL60 cell line (acute myeloid leukaemia, AML) was obtained from ATCC. It was cultured in IMDM medium supplemented with 100 U/mL penicillin, 100 µg/mL streptomycin and 10% fetal bovine serum. U937 (AML) and Jurkat cells (ALL) were obtained from DMSZ, Braunschweig, Germany, and ATCC, respectively. They were cultivated in RPMI medium, supplemented with 100 U/mL penicillin, 100 µg/mL streptomycin and 10% fetal bovine serum. OPM-2 cell line (MM), was obtained from DMSZ, Braunschweig, Germany and cultured in RPMI medium supplemented with 100 U/mL penicillin, 100 µg/mL streptomycin, 10% fetal bovine serum and 1X GlutaMAXTM. All cell lines were cultured at 37 ° C with 5% CO2 in a humidified incubator. Cell culture reagents were purchased from Biowest.
(§3) For the leukemic cell lines, the CCK-8 Cell Counting Kit (Dojindo Molecular Technologies) was used according to manufacturers instructions. Briefly, 50.000 cells were seeded in each well of a 96 well plate, and they were treated with increased amounts (0 - 100 µM) of each of the compounds, and incubated for 18 h at 37 °C, 5% CO2. After this period, 7 µl of the CCK-8 reagent were added to each well, and cells were further incubated for 2 h at 37 °C, 5% CO2. OD at 450 nm was obtained using a MultiskanTM GO microplate reader (Thermo Fisher Scientific, Waltham, MA, EE.UU). Cell viability in each condition was normalized to the measurement obtained in the non treated samples (100%), and were represented as average ± standard error of the mean (SEM).
In general terms: Tetrazolium assays rely on reduction of a dye to a coloured formazan, in cell work by metabolically active cells.

A further assay has as its system OPM-2 (Multiple myeloma). Described as above. It counts as cell-based. To be noted: Homo sapiens, 18 h incubation, compounds 0 - 100 µM, read-out: IC50 Cancer cells OPM-2 (Multiple myeloma). The protocol: as §2, §3
Assay [5] relates to U937 (Acute myeloid leukaemia). The assay is described as above. In kind it is cell-based. The following applies: Homo sapiens, U-937; 18 h incubation, compounds 0 - 100 µM; read-out: IC50 Cancer cells U937 (Acute myeloid leukaemia). The procedure:
as §2, §3

In assay [6] the test system is Jurkat (Acute lymphoblastic leukaemia). The description is as above. The following applies: Homo sapiens, 18 h incubation, compounds 0 - 100 µM, read-out: IC50 Cancer cells Jurkat (Acute lymphoblastic leukaemia). In kind it is cell-based. The procedure:
as §2, §3

For another assay, the system named is HaCaT cells. The assay is described as follows: Cell viability assay (resazurin), cytotoxicity in non-malignant cells. It counts as cell-based, human. The following applies: Homo sapiens, HaCaT, read-out: IC50 HaCaT (Non-malignant keratinocyte). The procedure:
Cells were grown in Dulbecco's Modified Eagle's Medium (DMEM) supplemented with 100 U/mL penicillin, 100 µg/mL streptomycin and 10% fetal bovine serum. HL60 cell line (acute myeloid leukaemia, AML) was obtained from ATCC. It was cultured in IMDM medium supplemented with 100 U/mL penicillin, 100 µg/mL streptomycin and 10% fetal bovine serum. U937 (AML) and Jurkat cells (ALL) were obtained from DMSZ, Braunschweig, Germany, and ATCC, respectively. They were cultivated in RPMI medium, supplemented with 100 U/mL penicillin, 100 µg/mL streptomycin and 10% fetal bovine serum. […] All cell lines were cultured at 37 ° C with 5% CO2 in a humidified incubator. Cell culture reagents were purchased from Biowest. Exponentially growing cells (3000-6000 cells per well) were seeded in 96-well plates. After 24 hours, cells were treated with the drugs for 72 hours. The cell viability was then estimated with the resazurin assay, a colorimetric technique based on the capability of viable cells to reduce the blue reagent resazurin to the pink-soluble product resorufin. The amount of resorufin produced is proportional to the number of viable cells. Briefly, cells were washed once with phosphate buffered saline (PBS) and 150 µL resazurin (20 µg/mL in medium) was added to each well. The plates were incubated for 3 hours at 37 °C, 5% CO2, and finally optical densities were measured at 540 and 620 nm with a multiwell plate spectrophotometer reader (Multiskan EX Labsystems). Cell viability was calculated as a percentage compared to non-treated cells. The results were expressed as the means ± standard error of the mean (SEM). All data are from at least three independent experiments.

[7] abbreviates: 72 h treatment, resazurin assay, mean ± SEM.

For orientation: IC50 means the concentration at which inhibition is half-maximal.

Like-named read-outs stand apart in the source and are kept apart here.

With `CC(=O)OC[C@H]1O[C@H](Sc2ccccc2)[C@H](OC(C)=O)[C@@H](N=C=S)[C@@H]1OC(C)=O` [Compound 15α, Phenyl 2,4,6-tri-O-acetyl-3-isothiocyanato-1,3-dideoxy-1-thio-α-D-glucopyranoside], the IC50 in assay [1] (A549, 72 h treatment, resazurin assay, mean ± SEM) was found to be 14.1 ± 2.9 µM; in assay [2] (setting [7]), 15.3 ± 2.1 µM; in assay [3] (setting [7]), 18.8 ± 2.4 µM; in assay [4] it was 4.2 µM; in the assay with OPM-2 (Multiple myeloma), 10.2 µM; in assay [5] it was 8.3 µM. In addition, the IC50 was 14.4 µM in assay [6] and 17.7 ± 1 µM in the assay on HaCaT cells (setting [7]). The “S.I. A549 (Selectivity Index)” value in assay [1] worked out at 1.4±0.3. Besides, in assay [2], the “S.I. T24 (Selectivity Index)” value is listed as 1.2±0.1. Moreover, the “S.I. MeWo (Selectivity Index)” value in assay [3] turned out to be 1.0±0.1.
As to `CC(=O)OC[C@H]1O[C@@H](S(C)(=O)=O)[C@H](OC(C)=O)[C@@H](N=C=S)[C@@H]1OC(C)=O` [Compound 19β, Methyl 2,4,6-tri-O-acetyl-3-isothiocyanato-1,3-dideoxy-1-sulfonyl-β-D-glucopyranose], the IC50 in assay [1] (A549, 72 h) is 98 ± 24 µM; in assay [2] (72 h), 51.8 ± 2.7 µM; in assay [3] (72 h), 77.1 ± 14.4 µM; in assay [4], ~24.7 µM; in the assay with OPM-2 (Multiple myeloma) it was ~48.5 µM; in assay [5], 45.7 µM. Also, the figures for the IC50 (in assay [6]; in the assay with HaCaT cells (72 h)) were 37.1 µM and 138 ± 22.5 µM, respectively. In assay [1], the “S.I. A549 (Selectivity Index)” value is 1.5±0.1. Also, the “S.I. T24 (Selectivity Index)” value in assay [2] is on record as 2.6±0.3. In assay [3], the “S.I. MeWo (Selectivity Index)” value is 1.9±0.3.
In the case of `CCS(=O)(=O)[C@H]1O[C@H](COC(C)=O)[C@@H](OC(C)=O)[C@H](N=C=S)[C@H]1OC(C)=O` [Compound 20α, Ethyl 2,4,6-tri-O-acetyl-3-isothiocyanato-1,3-dideoxy-1-sulfonyl-α-D-glucopyranose], the IC50 in assay [1] (A549, 72 h) amounted to 92.4 ± 25.7 µM; in assay [2] (72 h) it was 55.8 ± 6 µM; in assay [3] (72 h) it was 95.3 ± 44.8 µM; in assay [4], 19.9 µM; in the assay on OPM-2 (Multiple myeloma), 71.9 µM; in assay [5], 74 µM. Besides, the half-maximal inhibitory concentration (IC50) in assay [6] was 30.3 µM; in the assay on HaCaT cells (72 h), > 100 µM. Besides, the “S.I. A549 (Selectivity Index)” value in assay [1] was determined as 2.1±0.1. Moreover, in assay [2], the “S.I. T24 (Selectivity Index)” value is given as 2.9±0.8. Moreover, the “S.I. MeWo (Selectivity Index)” value in assay [3] came out at 1.9±0.2.
Regarding `CCS(=O)(=O)[C@@H]1O[C@H](COC(C)=O)[C@@H](OC(C)=O)[C@H](N=C=S)[C@H]1OC(C)=O` [Compound 20β, Ethyl 2,4,6-tri-O-acetyl-3-isothiocyanato-1,3-dideoxy-1-sulfonyl-β-D-glucopyranose], the 50% inhibitory concentration (IC50) in assay [1] (A549, 72 h) was 47.9 ± 10 µM; in assay [2] (72 h) it was 39.3 ± 3.7 µM; in assay [3] (72 h) it was 53.6 ± 7.4 µM; in assay [4], 19.8 µM; in the assay with OPM-2 (Multiple myeloma), 37.2 µM; in assay [5], 34.7 µM. Moreover, the concentration for half-maximal inhibition (IC50) was 45.1 µM in assay [6] and 84.9 ± 15.2 µM with HaCaT cells (72 h). In addition, the “S.I. A549 (Selectivity Index)” value in assay [1] is 1.9±0.3. In addition, the “S.I. T24 (Selectivity Index)” value in assay [2] was 2.1±0.2. The “S.I. MeWo (Selectivity Index)” value in assay [3] is given as 1.6±0.3.
Take `CC(=O)OC[C@H]1O[C@@H](S(=O)(=O)c2ccccc2)[C@H](OC(C)=O)[C@@H](N=C=S)[C@@H]1OC(C)=O` [Compound 21β, Phenyl 2,4,6-tri-O-acetyl-3-isothiocyanato-1,3-dideoxy-1-sulfonyl-β-D-glucopyranose]: the IC50 was 37.5 ± 8.6 µM in assay [1] (A549, 72 h); 36.4 ± 9.3 µM in assay [2] (72 h); 43.5 ± 9.4 µM in assay [3] (72 h); 13.1 µM in assay [4]; 19.7 µM in the assay on OPM-2 (Multiple myeloma); ~48.3 µM in assay [5]. Besides, the IC50 in assay [6] amounted to 24.9 µM; in the assay with HaCaT cells (72 h) it was 55.7 ± 2.4 µM. Also, the “S.I. A549 (Selectivity Index)” value in assay [1] was 1.7±0.4. Besides, in assay [2], the “S.I. T24 (Selectivity Index)” value is listed as 1.9±0.4. In addition, the “S.I. MeWo (Selectivity Index)” value in assay [3] was 1.5±0.3.

The values above are taken from patent EP4534542A1, “THIOSUGAR BASED ISOTHIOCYANATES AND USES THEREOF” (Universidad de Sevilla, priority 2023, dated 2025).
